Source: patent US4378358A, “Benzothiazinopyrazoles having pharmacological activity” (Mediolanum Farmaceutici s.r.l., priority 1980, dated 1983)
Read-outs that look alike come from different tables or passages of the source.

Legend:
in vivo [1] = assay type: in vivo; details: rat, in vivo, po; read-out: LD 50 (Litchfield and Wilcoxon)
Rat [2] = test: in vivo; assay type: in vivo; details: per os
in vivo [3] = details: rat, in vivo, po
From the text: (§1) Five days subacute toxicity in rats per os
(§2) Animals: 5 female rats for each group, average body weight: 150g.

rats [4] = test: in vivo; details: 5 days, rats, per os
From the text: as §1, §2

rats [5] = assay type: in vivo, rat
Method: The test was modified by increasing the fast period to 70 hours and giving the total dose of substance in one single oral administration.
Animals: 10 male rats for each group, average body weight: 150g.

pyresis = test: Antipyretic activity according to Burn et al.; assay type: in vivo, rat; details: for Reduction of the pyresis at hour 4: female rats
From the text: Animals: 6 female rats for each group, average body weight 200 g.

phenylquinone writhes = test: Analgesic activity according to Hendershot et al., phenylquinone writhes, modified; assay type: in vivo, mouse
Method: Analgesic activity according to HENDERSHOT et al., Jour. Pharm.
The test was modified by numbering the writhes only along the time interval from 5 to 15 minutes since the injection of phenylquinone. The injection was made 2 hours after the oral administration of the compound to be tested.
Animals: 8 female mice for each group, average body weight: 25g

carrageenin paw edema = test: Antiinflammatory activity according to Winter et al., carrageenin paw edema, modified; assay type: in vivo, rat
Method: Antiinflammatory activity according to WINTER et al., Proc. Soc. Exp. Biol. Med.; 111, 544; 1962.
The test was modified in that the injection of carrageenin and the administration of the compound by gastric gavage were carried out simultaneously and the paw edema was measured at the plethysmograph after 4 hours.
Animals: 6 female rats for each group, average body weight: 150g

Mouse = details: per os
in vivo [6] = details: mouse, po
Rat [7] = details: per os, literature value (footnotes a, b); cited from earlier work
[8] = male rats, single oral administration
[9] = 50 mg/g (so in the source) per os
[10] = 100 mg/g (so in the source) per os

SMILES: CCN1CCCC1CNC(=O)c1nn(-c2ccccc2)c2c1N(C)S(=O)(=O)c1ccccc1-2 (stereo not shown) [Compound I-24]
- LD50 (in vivo [1]): 1060 mg/kg
- LD 50, relative ratio to piroxicam (Rat [2]): 3.9
- mortality at 120 h (in vivo [3]; 200 mg/kg/day, read-out: % of dead animals): 0%
- Subacute toxicity, relative ratio to naproxen (rats [4]): 4
- Subacute toxicity, relative ratio to piroxicam (rats [4]): 10
- Average number of lesions per animal (rats [5]; 100 mg/kg (maximum tested dose), single oral administration, male rats): 0
- Gastrolesive effect, relative potency to naproxen (rats [5]; [8]): > 20
- Gastrolesive effect, relative potency to piroxicam (rats [5]; [8]): 100
- Antipyretic relative potency to naproxen (pyresis; [9]): 0.7
- Antipyretic relative potency to piroxicam (pyresis; [9]): 0.9
- Reduction of the pyresis at hour 4 (pyresis; [9]): 0.81 °C
- Antipyretic relative potency to naproxen (pyresis; [10]): 1.1
- Antipyretic relative potency to piroxicam (pyresis; [10]): 1.4
- Reduction of the pyresis at hour 4 (pyresis; [10]): 1.24 °C
- Analgesic relative potency to naproxen (phenylquinone writhes; 50 mg/kg oral): 0.9
- Analgesic relative potency to piroxicam (phenylquinone writhes; 50 mg/kg oral): 0.7
- Analgesic relative potency to naproxen (phenylquinone writhes; 100 mg/kg oral): 1.4
- Analgesic relative potency to piroxicam (phenylquinone writhes; 100 mg/kg oral): 1.0
- inhibition in vivo at 50 mg/kg (phenylquinone writhes; Mus musculus, 50 mg/kg oral, 2 h before phenylquinone, 5-15 min, female mice): 30%
- inhibition in vivo at 100 mg/kg (phenylquinone writhes; Mus musculus, 100 mg/kg oral, 2 h before phenylquinone, 5-15 min, female mice): 47%
- Antiinflammatory relative potency to naproxen (carrageenin paw edema; 50 mg/kg per os): 1.8
- Antiinflammatory relative potency to piroxicam (carrageenin paw edema; 50 mg/kg per os): 0.8
- Antiinflammatory relative potency to naproxen (carrageenin paw edema; 100 mg/kg per os): 2.1
- Antiinflammatory relative potency to piroxicam (carrageenin paw edema; 100 mg/kg per os): 1.0
- inhibition in vivo at 50 mg/kg (carrageenin paw edema; Rattus norvegicus, po, 4 h, 50 mg/kg per os, female rats, read-out: % inhibition of the edema after 4 hours): 38%
- inhibition in vivo at 100 mg/kg (carrageenin paw edema; Rattus norvegicus, po, 4 h, 100 mg/kg per os, female rats, read-out: % inhibition of the edema after 4 hours): 45%
- LD 50, relative ratio to piroxicam (Mouse): 2.1
- LD50 (in vivo [6]): 760 mg/kg

SMILES: CN1C(C(=O)Nc2ccccn2)=C(O)c2ccccc2S1(=O)=O [Piroxicam, piroxicam, reference compound]
- LD 50, relative ratio to piroxicam (Rat [2]): 1
- mortality at 120 h (in vivo [3]; 20 mg/kg/day): 0%
- mortality (in vivo [3]; 30 mg/kg/day): 6%
- mortality at 120 h (in vivo [3]; 30 mg/kg/day): 40%
- Subacute toxicity, relative ratio to piroxicam (rats [4]): 1
- Gastrolesive effect, relative potency to piroxicam (rats [5]; [8]): 1
- Gastric ulcerogenicity (in words) (rats [5]; rat, in vivo): considerable gastrolesive power
- Reduction of the pyresis at hour 4 (pyresis; 10 mg/g (so in the source) per os): 0.89 °C
- inhibition in vivo at 10 mg/kg (phenylquinone writhes; Mus musculus, 10 mg/kg oral, 2 h before phenylquinone, 5-15 min, female mice): 46%
- inhibition in vivo at 10 mg/kg (carrageenin paw edema; Rattus norvegicus, po, 4 h, 10 mg/kg per os, female rats, read-out: % inhibition of the edema after 4 hours): 45%
- LD 50, relative ratio to piroxicam (Mouse): 1
- LD 50 (Litchfield and Wilcoxon) (Rat [7]): 270 mg/kg
